From patent publication US8946187B2, “Materials and methods related to microRNA-21, mismatch repair, and colorectal cancer” (The Ohio State University, priority 2010, dated 2015)

Tested on: Lovo tumor xenografts
Assay: Colorectal cancer xenograft model, 5-FU treatment
Assay type: in vivo, nude mice
Conditions: 5-FU 50 mg/kg/day i.p., 5 days per week for 2 weeks; Lovo(MSH2+) vs Lovo(MSH2−)
Excerpt: Lovo-MSH2 positive and Lovo-MSH2 negative cells were stably infected with the pCDH-CMV-MCS-EF1-miRNA expression plasmid containing the full-length miR-21 and the GFP gene under the control of two different promoters (System Biosciences, Mountain View, Calif.). An empty vector was used as control. Pre-miR-21 expression and control constructs were packaged with pPACKH1 Lentivector Packaging Plasmid mix (System Biosciences) in 293-TN packaging cell line. Viruses were concentrated using PEG-It™ Virus Precipitation Solution and titers analyzed using UltraRapid Lentiviral Titer Kit (System Biosciences). Infected cells were selected by FACS analysis (FACS Calibur, Becton Dickinson Immunocytometry Systems). Infection efficiency >90% was verified by fluorescent microscopy and further confirmed by real time PCR for miR-21 expression.
Animal studies were performed according to institutional guidelines. […] Tumor volume was measured at the beginning of treatment and then once a week. The estimated tumor volume (V) was calculated by the following formula: V=W2×L×0.5, where W represents the […] tumor diameter. The individual relative tumor volume (RTV) was calculated as follows RTV=Vx/V1 where Vx is the volume in cubic millimeters at a given time and V1 is the volume at the start of treatment. […]

O=c1[nH]cc(F)c(=O)[nH]1 [5-FU, 5-fluorouracil]
efficacy of 5-FU treatment on tumor xenografts: more efficacious with Lovo(MSH2+) tumor xenografts compared to Lovo(MSH2−) tumor xenografts
